Read-outs that look alike come from different tables or passages of the source.
Columns and labels:
full-length human RORγt = full-length human RORγt (Homo sapiens (Human), UniProt P51449); assay: RORγt (full-length human) reporter assay, Conditions B or C; format: cell-based; settings: for IC50: read-out: RORγt (FL) Reporter Assay B or C, IC50; for inhibition at 6 µM: read-out: RORγt (FL) Reporter Assay B or C, % inhibition @ 6 μM, Conditions B or C
Summary of the method: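 HEK293T cells transiently co-transfected with GAL4-DBD–full-length human RORγt (nt 142-1635, NM_001001523.1) plus GAL4-firefly and CMV-Renilla luciferase reporters; compounds added 4-6 h post-transfection for 16-20 h in 1.3% FBS, 0.1% DMSO. Firefly signal normalized to DMSO and saturating reference compound, then to Renilla; IC50 from concentration plots.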

[1] = biological target: human RORγt ligand binding domain (RORγt LBD) (Homo sapiens (Human), UniProt P51449); assay: RORγt ThermoFluor® assay (thermal shift binding); settings: read-out: ThermoFluor® Assay, Kd
Summary of the method: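 His-tagged human RORγt LBD (0.065 mg/mL) with 60 μM 1,8-ANS in 100 mM Hepes pH 7.0, 10 mM NaCl, 2.5 mM GSH, 0.002% Tween-20 was heated at 1 °C/min.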

full-length human RORγt, sequence (P51449 other isoform, or with tags, fused parts or gaps): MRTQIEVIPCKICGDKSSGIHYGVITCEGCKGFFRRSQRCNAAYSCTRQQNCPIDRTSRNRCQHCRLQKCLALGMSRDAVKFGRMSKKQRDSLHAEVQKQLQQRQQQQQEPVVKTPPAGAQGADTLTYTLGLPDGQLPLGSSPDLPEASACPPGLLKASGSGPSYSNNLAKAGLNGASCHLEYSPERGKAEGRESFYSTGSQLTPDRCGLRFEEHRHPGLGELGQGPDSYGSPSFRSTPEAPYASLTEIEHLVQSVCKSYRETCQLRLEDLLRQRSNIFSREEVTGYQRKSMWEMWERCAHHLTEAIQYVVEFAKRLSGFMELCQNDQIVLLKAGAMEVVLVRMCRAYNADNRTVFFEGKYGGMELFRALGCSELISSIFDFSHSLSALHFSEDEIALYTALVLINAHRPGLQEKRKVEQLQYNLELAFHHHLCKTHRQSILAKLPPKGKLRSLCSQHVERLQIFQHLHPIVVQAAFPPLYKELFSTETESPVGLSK
human RORγt ligand binding domain (RORγt LBD), sequence (P51449 other isoform, or with tags, fused parts or gaps): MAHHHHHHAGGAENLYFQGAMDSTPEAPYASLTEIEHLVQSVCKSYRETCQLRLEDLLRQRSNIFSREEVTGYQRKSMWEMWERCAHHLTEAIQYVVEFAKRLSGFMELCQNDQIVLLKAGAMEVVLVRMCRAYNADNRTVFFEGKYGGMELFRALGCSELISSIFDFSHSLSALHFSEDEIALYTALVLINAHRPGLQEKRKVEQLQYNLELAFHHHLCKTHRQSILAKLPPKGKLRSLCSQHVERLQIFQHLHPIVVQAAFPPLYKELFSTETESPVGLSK

| SMILES | inhibition at 3 µM (full-length human RORγt; at 3 μM compound concentration, read-out: RORγt (FL) Reporter Assay B or C, % inhibition) [%] | IC50 (full-length human RORγt) [nM] | Kd [1] [nM] | IC50 (full-length human RORγt; HEK293T cells) [nM] | RORγt (FL) Reporter Assay B or C, % inhibition (value marked *) (full-length human RORγt; Conditions B or C, marked *: footnote not given) | IC50 (full-length human RORγt; Conditions B or C) [nM] | inhibition at 6 µM (full-length human RORγt) [%] |
| --- | --- | --- | --- | --- | --- | --- | --- |
| C[C@H]1CCCN1C(=O)c1nc(C(=O)NCC(C)(C)O)sc1-c1ccnc(NC2CCCCC2)c1C#N [Comparator Example 1, (S)-5-(3-Cyano-2-(cyclohexylamino)pyridin-4-yl)-N-(2-hydroxy-2-methylpropyl)-4-(2-methylpyrrolidine-1-carbonyl)thiazole-2-carboxamide, reference compound] | – | – | 3000 | > 6000 | – | – | – |
| C[C@H]1CCCN1C(=O)c1nc(C(=O)NCC(C)(C)O)sc1-c1cncc(NC2CCCCC2)c1C#N [Comparator Example 2, (S)-5-(4-Cyano-5-(cyclohexylamino)pyridin-3-yl)-N-(2-hydroxy-2-methylpropyl)-4-(2-methylpyrrolidine-1-carbonyl)thiazole-2-carboxamide, reference compound] | – | – | 5800 | 3000 | – | – | – |
| C[C@H]1CCCN1C(=O)c1nc(C(=O)NCC2(O)CC2)sc1-c1cnc(NC2CCCC2)cc1C(F)F [Example 2, (S)-5-(6-(Cyclopentylamino)-4-(difluoromethyl)pyridin-3-yl)-N-((1-hydroxycyclopropyl)methyl)-4-(2-methylpyrrolidine-1-carbonyl)thiazole-2-carboxamide] | – | – | 40 | – | 95* % | 77 | – |
| C[C@H]1CCN1C(=O)c1nc(C(=O)NCC(C)(C)O)sc1-c1cnc(NC2CCCCC2)cc1C(F)(F)F [Example 25, (S)-5-(6-(Cyclohexylamino)-4-(trifluoromethyl)pyridin-3-yl)-N-(2-hydroxy-2-methylpropyl)-4-(2-methylazetidine-1-carbonyl)thiazole-2-carboxamide] | – | – | 120 | – | – | 220 | 102 |
| CC(C)(O)CNC(=O)c1nc(C(=O)N2CCC(F)CC2)c(-c2cnc(NC3CCCCC3(F)F)cc2C(F)(F)F)s1 (stereo not shown) [Example 26, 5-(6-((2,2-Difluorocyclohexyl)amino)-4-(trifluoromethyl)pyridin-3-yl)-4-(4-fluoropiperidine-1-carbonyl)-N-(2-hydroxy-2-methylpropyl)thiazole-2-carboxamide] | – | – | 9.5 | – | – | 37 | 111 |
| C[C@H]1CCCCN1C(=O)c1nc(C(=O)NC2CCS(=O)(=O)CC2)sc1-c1cnc(NC2CCCC2)cc1C(F)(F)F [Example 28, (S)-5-(6-(Cyclopentylamino)-4-(trifluoromethyl)pyridin-3-yl)-N-(1,1-dioxidotetrahydro-2H-thiopyran-4-yl)-4-(2-methylpiperidine-1-carbonyl)thiazole-2-carboxamide] | – | – | 0.17 | – | – | 14 | 123 |
| C[C@@H](Nc1cc(C(F)(F)F)c(-c2sc(C(=O)NCC(C)(C)O)nc2C(=O)N2CCC(F)CC2)cn1)C1CC1 [Example 29, (R)-5-(6-((1-Cyclopropylethyl)amino)-4-(trifluoromethyl)pyridin-3-yl)-4-(4-fluoropiperidine-1-carbonyl)-N-(2-hydroxy-2-methylpropyl)thiazole-2-carboxamide] | – | – | 22 | – | – | 22 | 105 |
| C[C@H](Nc1cc(C(F)(F)F)c(-c2sc(C(=O)NCC(C)(C)O)nc2C(=O)N2CCC(F)CC2)cn1)C1CC1 [Example 30, (S)-5-(6-((1-Cyclopropylethyl)amino)-4-(trifluoromethyl)pyridin-3-yl)-4-(4-fluoropiperidine-1-carbonyl)-N-(2-hydroxy-2-methylpropyl)thiazole-2-carboxamide] | – | – | 2.8 | – | – | 20 | 104 |

Now from value to molecule:

| inhibition at 3 µM (full-length human RORγt; at 3 μM compound concentration, read-out: RORγt (FL) Reporter Assay B or C, % inhibition) [%] | IC50 (full-length human RORγt) [nM] | Kd [1] [nM] | IC50 (full-length human RORγt; HEK293T cells) [nM] | RORγt (FL) Reporter Assay B or C, % inhibition (value marked *) (full-length human RORγt; Conditions B or C, marked *: footnote not given) | IC50 (full-length human RORγt; Conditions B or C) [nM] | inhibition at 6 µM (full-length human RORγt) [%] | SMILES |
| --- | --- | --- | --- | --- | --- | --- | --- |
| 103 | 42 | 1.1 | – | – | – | – | C[C@H]1CCCN1C(=O)c1nc(C(=O)NCC(O)C(F)(F)F)sc1-c1cnc(NC(C)(C)C)cc1C(F)(F)F (stereo in doubt) [Example 352, 5-[6-(tert-Butylamino)-4-(trifluoromethyl)-3-pyridyl]-4-(2-methylpyrrolidine-1-carbonyl)-N-(3,3,3-trifluoro-2-hydroxy-propyl)thiazole-2-carboxamide] |
| – | – | 0.43 | – | – | 5.2 | 109 | CC(Nc1cc(C(F)(F)F)c(-c2sc(C(=O)NCC(C)(C)O)nc2C(=O)N2CCCC[C@@H]2C)cn1)C(F)(F)F (stereo partly drawn) [Example 33, N-(2-Hydroxy-2-methylpropyl)-4-((S)-2-methylpiperidine-1-carbonyl)-5-(4-(trifluoromethyl)-6-((1,1,1-trifluoropropan-2-yl)amino)pyridin-3-yl)thiazole-2-carboxamide] |
| – | – | 0.29 | – | – | 6.9 | 105 | C[C@H]1CCCCN1C(=O)c1nc(C(=O)NCC(C)(C)O)sc1-c1cnc(NC2CCCCC2)cc1C(F)F [Example 34, (S)-5-(6-(Cyclohexylamino)-4-(difluoromethyl)pyridin-3-yl)-N-(2-hydroxy-2-methylpropyl)-4-(2-methylpiperidine-1-carbonyl)thiazole-2-carboxamide] |
| – | – | 0.12 | – | – | 13 | 105 | C[C@H](Nc1cc(C(F)(F)F)c(-c2sc(C(=O)NCC(C)(C)O)nc2C(=O)N2CCCC[C@@H]2C)cn1)C1CC1 [Example 39, 5-(6-(((S)-1-Cyclopropylethyl)amino)-4-(trifluoromethyl)pyridin-3-yl)-N-(2-hydroxy-2-methylpropyl)-4-((S)-2-methylpiperidine-1-carbonyl)thiazole-2-carboxamide] |
| – | – | 9.3 | – | – | 42 | 111 | C[C@H]1CCCN1C(=O)c1nc(C(=O)NCC(C)(C)O)sc1-c1cnc(NC2CCCC2)cc1C(F)F [Example 42, (S)-5-(6-(Cyclopentylamino)-4-(difluoromethyl)pyridin-3-yl)-N-(2-hydroxy-2-methylpropyl)-4-(2-methylpyrrolidine-1-carbonyl)thiazole-2-carboxamide] |
| – | – | 4.9 | – | – | 22 | 107 | C[C@H](Nc1cc(C(F)F)c(-c2sc(C(=O)NCC(C)(C)O)nc2C(=O)N2CCC[C@@H]2C)cn1)C1CC1 [Example 43, 5-(6-(((S)-1-Cyclopropylethyl)amino)-4-(difluoromethyl)pyridin-3-yl)-N-(2-hydroxy-2-methylpropyl)-4-((S)-2-methylpyrrolidine-1-carbonyl)thiazole-2-carboxamide] |
| – | – | 2.5 | – | – | 20 | 111 | C[C@H]1CC(F)(F)CN1C(=O)c1nc(C(=O)NCC(C)(C)O)sc1-c1cnc(NC2CCCC2)cc1C(F)F [Example 44, (S)-5-(6-(Cyclopentylamino)-4-(difluoromethyl)pyridin-3-yl)-4-(4,4-difluoro-2-methylpyrrolidine-1-carbonyl)-N-(2-hydroxy-2-methylpropyl)thiazole-2-carboxamide] |
| – | – | 0.62 | – | – | 10 | 111 | C[C@H]1CCCCN1C(=O)c1nc(C(=O)NCC(C)(C)O)sc1-c1cnc(N[C@H](C)C(F)(F)F)cc1C(F)(F)F [Example 45, N-(2-Hydroxy-2-methylpropyl)-4-((S)-2-methylpiperidine-1-carbonyl)-5-(4-(trifluoromethyl)-6-(((R)-1,1,1-trifluoropropan-2-yl)amino)pyridin-3-yl)thiazole-2-carboxamide] |

Reference: US10975068B2, “6-aminopyridin-3-yl thiazoles as modulators of RORγT” (Janssen Pharmaceutica NV, priority 2016, dated 2021)
